Values of other authors in article PMC3201700 (Journal of agricultural and food chemistry, 2011).
Like-named read-outs stand apart in the source and are kept apart here.

Experiments:
[1] = tested on: MRP1 and MRP2; conditions: SFN compared with ERN
[2] = rats

## C[S+]([O-])CCCCN=C=S (stereo not drawn) [SFN, sulforaphane]
[1]
  Induction of MRP1 and MRP2 (phase III detoxification): substantially more potent than ERN

## C[S+]([O-])CCCC/C(=N\OS(=O)(=O)O)S[C@@H]1O[C@H](CO)[C@@H](O)[C@H](O)[C@H]1O (stereo partly drawn) [glucoraphanin]
[2]; by gavage
  Recovery of the dose in the urine after 24 h: 27.6%
[2]; in the diet
  Recovery of the dose in the urine after 24 h: 23.8%
